We go through 37 molecules from a melting point compilation (Tetko et al.; mined from patent text by program, amines drawn as free bases though some values may be those of a salt).

Structures are written as SMILES.

`CSc1ccc(C2=C(c3ccc(F)cc3)CCC2)cc1`: the melting point is 46 to 47 °C.

With `CC(=O)Nc1c(C(=O)c2ccncc2)[nH]c2cc(Cl)ccc12`, the melting point was in the range of 262 to 264 °C.

The molecule `CC1CCCN1CCCOc1ccc(-c2ccc(S(=O)Cc3ccccc3)nn2)cc1` (configuration not stated) returned a melting point of 145 °C.

Molecule `Clc1ncccc1-c1nc2cccnc2o1` had a melting point of 140 to 141 °C.

In the case of `ClC(Cl)(Cl)c1cccc2nnsc12`, the melting point fell in the range of 67 to 69 °C.

`CC(C)(C)OC(=O)N(O)C(=O)[C@H](N)COCc1ccccc1` returned a melting point of 128 to 130 °C.

The molecule `O=C(O)CCN1CCN(C2=Nc3ccccc3Sc3ccc(Cl)cc32)CC1` yielded a melting point of 120 to 121 °C.

In turn, `COc1ccc(C=CCN2CCc3nc(N)sc3CC2)c(OC)c1` registered a melting point of 95 to 100 °C.

`N#Cc1cccc2c(N)c([N+](=O)[O-])ccc12`: the melting point lay in the range of 260 to 262 °C.

The molecule `CCCCOc1ccc(Cc2nn(-c3ccccc3Cl)c(=O)o2)cc1` registered a melting point of 63 °C.

For `COc1ncccc1NC(=O)[C@H]1[C@H](c2ccc(S(N)(=O)=O)cc2)C1(C)C` (relative stereo), the melting point fell in the range of 216 to 218 °C.

In turn, `CCCOC(C(=O)O)c1ccc2c(c1)C(C)(C)CCC2(C)C` (racemic) had a melting point of 84 to 86 °C.

Regarding `O[C@@H](CNCCOc1ccc2oc(-c3noc(C(F)(F)F)n3)cc2c1)c1cccc(Cl)c1`, the melting point lay in the range of 108 to 111 °C.

In turn, `COc1cc(C2(O)CCN(C(=O)OC(C)(C)C)CC2)ccc1Nc1ncc2ccc(-c3ccccc3N(C)S(C)(=O)=O)n2n1` showed a melting point of 111 to 112 °C.

In turn, `COc1cccc(CCc2c(CC#N)ccc(OC)c2OC)c1` returned a melting point of 98 to 100 °C.

Regarding `CCOc1c(C(=O)O)cnc2nn(C)cc12`, the melting point is 222 to 225 °C.

`Cn1c2c(c(=O)n3nc(-c4ccccc4)cc13)CN(C1CCCCC1)C2=O` yielded a melting point of 276 to 279 °C.

The molecule `BrCCCNC(c1ccccc1)(c1ccccc1)c1ccccc1` yielded a melting point of 100 to 102 °C.

Regarding `CNC(=O)c1cccc(NC(=O)Cc2ccc(C)cc2)c1`, the melting point fell in the range of 174 to 175 °C.

`OCCc1c2ccccc2c(Br)c2ccccc12`: the melting point lay within 180 to 182 °C.

In the case of `O=C1/C(=C/c2ccccc2)C(Br)c2ccccc21` (configuration not stated), the melting point lay in the range of 118 to 119 °C.

On to `CCOC(=O)NCCOc1ccc(Oc2cccc(Cl)c2)cc1`, for which the melting point was in the range of 45 to 46 °C.

`COc1nc2ccc(Br)cc2cc1Cc1ccccc1`: the melting point fell in the range of 83 to 85 °C.

In turn, `O=C(c1cccnc1)N1CCCC(c2ccccc2)=N1` displayed a melting point of 84 to 86 °C.

In turn, `Oc1cc(-c2ncnc(C(F)(F)F)c2Cl)c(F)cc1Cl` returned a melting point of 130 to 132 °C.

As to `Cn1ccnc1Sc1ccc(F)cc1[N+](=O)[O-]`, the melting point is 123 to 126 °C.

The molecule `CCNC(=O)c1cc(Br)sc1[Si](C)(C)C` had a melting point of 96 to 98 °C.

In turn, `CCCOc1ccccc1C(=O)Nc1cc(SC)ccc1C(N)=O` registered a melting point of 178 to 181 °C.

As to `Oc1ccc([C@H]2CC[C@@H](NCCOc3ccccc3)CC2)cc1`, the melting point lay within 149 to 154 °C.

`Cc1ccc(-c2cn(-c3ccc4c(c3)c3ccccc3n4C)c(-c3ccc(C)s3)n2)s1` had a melting point of 248 to 255 °C.

In turn, `Cc1cc(O)ccc1-n1cc(C(=O)O)c(=O)cc1C=O` gave a melting point of 230 to 250 °C.

With `CCCCCCC(C)(C)c1ccc(C2CC(=O)CC(=O)C2)c(OCc2ccccc2)c1`, the melting point fell in the range of 102 to 103 °C.

For `O=C(O)CCN1Cn2cc(C(=O)O)cc2-c2ccccc21`, the melting point was 234 to 236 °C.

Turning to `Cc1cccc(-c2nc3cnccc3[nH]2)c1`, the melting point is 202 to 204 °C.

`C[C@@H]1CNC[C@H]2Cc3c(ncc(F)c3C=NO)N21` came in with a melting point of 195 to 197 °C.

As for `CCOC(=O)c1cnn(-c2cccc(Cl)n2)c1S(N)(=O)=O`, the melting point was in the range of 125 to 128 °C.

`O=C(Nc1ccc(OCCN2CCOCC2)c2ccccc12)c1cc(F)cc(OC2CCOCC2)c1` yielded a melting point of 75 to 77 °C.

As a reminder, the melting point is the temperature of the solid-liquid transition.
